In patent publication US12466839B2, “Allosteric AKT inhibitors for use in the treatment of Hereditary Hemorrhagic Telangiectasia” (VADERIS THERAPEUTICS AG, priority 2020, dated 2025):
pIC50: −log10 of the molar value.

Experiments:
H3 = target: T1, H3 (Homo sapiens, UniProt Q9Y5N1); assay: Millipore Drug Discovery Safety and Liability Panel; format: cell-based
T1 construct: purchased Millipore

FPR1 = target: T2, FPR1 (Homo sapiens, UniProt P21462); assay: as above; format: cell-based
T2 construct: purchased Millipore

CGRP1 = target: T3, CGRP1 (Homo sapiens, UniProt O60894+Q16602); assay: as above; format: cell-based
T3 construct: purchased Millipore

PAC1 = target: T4, PAC1 (Homo sapiens, UniProt P41586); assay: as above; format: cell-based
T4 construct: Millipore

H1 = target: T5, H1 (Homo sapiens, UniProt P35367); assay: as above; format: cell-based
T5 construct: purchased Millipore

GPR109A = target: T6, GPR109A (Homo sapiens, UniProt Q8TDS4); assay: as above; format: cell-based
T6 construct: purchased Millipore

ETB = target: T7, ETB (Homo sapiens, UniProt P24530); assay: as above; format: cell-based
T7 construct: purchased Millipore

Cav1.2 = Cav1.2 (Homo sapiens, UniProt Q13936); assay: Cardiac ion channel profile; format: cell-based
D5 = target: T8, D5 (Homo sapiens, UniProt P21918); assay: Millipore Drug Discovery Safety and Liability Panel; format: cell-based
T8 construct: purchased Millipore

Kir2.1 = Kir2.1 (Homo sapiens, UniProt P63252); assay: Cardiac ion channel profile; format: cell-based
OPRM1 = target: T9, OPRM1 (Homo sapiens, UniProt P35372); assay: Millipore Drug Discovery Safety and Liability Panel; format: cell-based
T9 construct: Millipore

BDKR2 = target: T10, BDKR2 (Homo sapiens, UniProt P30411); assay: as above; format: cell-based
T10 construct: purchased Millipore

M1 = target: T11, M1 (Homo sapiens, UniProt P11229); assay: as above; format: cell-based
T11 construct: purchased Millipore

KCNQ1 = KCNQ1 (Homo sapiens, UniProt P51787); assay: Cardiac ion channel profile; format: cell-based
BLT1 = target: T12, BLT1 (Homo sapiens, UniProt Q15722); assay: Millipore Drug Discovery Safety and Liability Panel; format: cell-based
T12 construct: purchased Millipore

PAF = target: T13, PAF (Homo sapiens, UniProt P25105); assay: as above; format: cell-based
T13 construct: Millipore

CXCR1 = target: T14, CXCR1 (Homo sapiens, UniProt P25024); assay: as above; format: cell-based
T14 construct: purchased Millipore

OPRD1 = target: T15, OPRD1 (Homo sapiens, UniProt P41143); assay: as above; format: cell-based
T15 construct: Millipore

EP2 = target: T16, EP2 (Homo sapiens, UniProt P43116); assay: as above; format: cell-based
T16 construct: purchased Millipore

CRF1 = target: T17, CRF1 (Homo sapiens, UniProt P34998); assay: as above; format: cell-based
T17 construct: purchased Millipore

FP = target: T18, FP (Homo sapiens, UniProt P43088); assay: as above; format: cell-based
T18 construct: purchased Millipore

NMU1 = target: T19, NMU1 (Homo sapiens, UniProt Q9HB89); assay: as above; format: cell-based
T19 construct: Millipore

CB2 = target: T20, CB2 (Homo sapiens, UniProt P34972); assay: as above; format: cell-based
T20 construct: purchased Millipore

Nav1.5 = Nav1.5 (Homo sapiens, UniProt Q14524); assay: Cardiac ion channel profile; format: cell-based
VPAC1 = target: T21, VPAC1 (Homo sapiens, UniProt P32241); assay: Millipore Drug Discovery Safety and Liability Panel; format: cell-based
T21 construct: Millipore

H2 = target: T22, H2 (Homo sapiens, UniProt P25021); assay: as above; format: cell-based
T22 construct: purchased Millipore

PDK1 = PDK1 (Homo sapiens, UniProt O15530); assay: Panel of 450 kinases and 10-point titration curve; format: biochemical
IP1 = target: T23, IP1 (Homo sapiens, UniProt P43119); assay: Millipore Drug Discovery Safety and Liability Panel; format: cell-based
T23 construct: purchased Millipore

[1] = read-out: ANTAGONIST mean % inhibition
[2] = read-out: AGONIST mean % increase in activity

T15 sequence (P41143 whole entry, species assumed): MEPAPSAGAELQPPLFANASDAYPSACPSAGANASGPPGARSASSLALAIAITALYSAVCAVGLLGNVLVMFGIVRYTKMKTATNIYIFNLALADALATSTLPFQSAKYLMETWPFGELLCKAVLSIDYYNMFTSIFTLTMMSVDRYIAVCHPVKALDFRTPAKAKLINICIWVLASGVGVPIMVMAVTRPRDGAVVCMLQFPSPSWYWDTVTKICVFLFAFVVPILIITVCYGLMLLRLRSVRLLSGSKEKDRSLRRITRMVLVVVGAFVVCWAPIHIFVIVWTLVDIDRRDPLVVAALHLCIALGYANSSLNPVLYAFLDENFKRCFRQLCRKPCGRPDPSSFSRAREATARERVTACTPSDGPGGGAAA
T16 sequence (P43116 whole entry): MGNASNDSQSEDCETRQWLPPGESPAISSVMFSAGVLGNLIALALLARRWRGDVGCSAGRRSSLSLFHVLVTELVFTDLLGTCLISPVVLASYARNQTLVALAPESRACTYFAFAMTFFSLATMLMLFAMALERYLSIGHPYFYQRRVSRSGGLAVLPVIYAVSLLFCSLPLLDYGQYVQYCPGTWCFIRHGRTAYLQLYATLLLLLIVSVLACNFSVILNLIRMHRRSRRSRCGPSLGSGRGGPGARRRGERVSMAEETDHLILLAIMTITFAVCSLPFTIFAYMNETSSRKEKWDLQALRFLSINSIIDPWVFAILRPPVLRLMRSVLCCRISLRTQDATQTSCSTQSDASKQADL
T18 sequence (P43088 whole entry): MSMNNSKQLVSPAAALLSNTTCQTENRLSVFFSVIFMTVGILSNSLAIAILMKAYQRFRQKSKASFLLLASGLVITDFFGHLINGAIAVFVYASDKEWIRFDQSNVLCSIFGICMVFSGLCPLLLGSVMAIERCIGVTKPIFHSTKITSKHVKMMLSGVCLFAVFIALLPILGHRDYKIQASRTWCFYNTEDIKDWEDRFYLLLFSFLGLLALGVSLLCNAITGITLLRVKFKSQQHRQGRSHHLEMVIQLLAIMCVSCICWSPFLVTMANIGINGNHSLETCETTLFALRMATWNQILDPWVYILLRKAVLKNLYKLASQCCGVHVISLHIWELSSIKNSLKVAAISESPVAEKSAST
T23 sequence (P43119 whole entry): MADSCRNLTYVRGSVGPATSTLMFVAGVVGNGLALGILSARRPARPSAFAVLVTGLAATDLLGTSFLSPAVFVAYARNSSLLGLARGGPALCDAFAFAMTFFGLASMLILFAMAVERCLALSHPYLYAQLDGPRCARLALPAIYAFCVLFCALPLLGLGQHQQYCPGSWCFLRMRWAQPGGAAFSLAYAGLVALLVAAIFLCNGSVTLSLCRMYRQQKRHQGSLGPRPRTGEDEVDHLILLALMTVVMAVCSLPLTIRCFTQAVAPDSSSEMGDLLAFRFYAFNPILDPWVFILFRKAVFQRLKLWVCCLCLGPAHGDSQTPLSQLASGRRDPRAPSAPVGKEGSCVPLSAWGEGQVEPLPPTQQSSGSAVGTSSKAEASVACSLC
T2 sequence (P21462 whole entry, species assumed): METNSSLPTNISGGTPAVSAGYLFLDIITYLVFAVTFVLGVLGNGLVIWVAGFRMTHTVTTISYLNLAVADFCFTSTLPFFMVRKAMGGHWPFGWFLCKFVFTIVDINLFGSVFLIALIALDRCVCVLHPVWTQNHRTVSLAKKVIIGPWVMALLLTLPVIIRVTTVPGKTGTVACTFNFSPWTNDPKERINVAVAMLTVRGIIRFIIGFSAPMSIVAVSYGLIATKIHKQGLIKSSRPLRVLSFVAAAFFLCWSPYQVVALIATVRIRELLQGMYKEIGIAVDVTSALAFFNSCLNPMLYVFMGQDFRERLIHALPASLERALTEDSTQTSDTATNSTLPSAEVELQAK
T4 sequence (P41586 21-468): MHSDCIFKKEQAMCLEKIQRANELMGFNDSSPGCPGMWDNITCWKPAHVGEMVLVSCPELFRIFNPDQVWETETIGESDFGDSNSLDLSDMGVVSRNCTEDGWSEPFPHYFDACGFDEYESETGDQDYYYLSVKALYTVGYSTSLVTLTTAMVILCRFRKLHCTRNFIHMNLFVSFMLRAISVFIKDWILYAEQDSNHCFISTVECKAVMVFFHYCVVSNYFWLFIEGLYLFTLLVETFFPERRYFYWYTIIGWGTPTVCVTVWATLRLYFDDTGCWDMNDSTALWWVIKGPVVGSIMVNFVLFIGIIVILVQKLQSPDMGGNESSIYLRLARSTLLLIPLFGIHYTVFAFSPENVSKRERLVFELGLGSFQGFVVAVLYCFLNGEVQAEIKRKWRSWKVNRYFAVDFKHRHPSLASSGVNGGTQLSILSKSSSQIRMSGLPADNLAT
T11 sequence (P11229 whole entry): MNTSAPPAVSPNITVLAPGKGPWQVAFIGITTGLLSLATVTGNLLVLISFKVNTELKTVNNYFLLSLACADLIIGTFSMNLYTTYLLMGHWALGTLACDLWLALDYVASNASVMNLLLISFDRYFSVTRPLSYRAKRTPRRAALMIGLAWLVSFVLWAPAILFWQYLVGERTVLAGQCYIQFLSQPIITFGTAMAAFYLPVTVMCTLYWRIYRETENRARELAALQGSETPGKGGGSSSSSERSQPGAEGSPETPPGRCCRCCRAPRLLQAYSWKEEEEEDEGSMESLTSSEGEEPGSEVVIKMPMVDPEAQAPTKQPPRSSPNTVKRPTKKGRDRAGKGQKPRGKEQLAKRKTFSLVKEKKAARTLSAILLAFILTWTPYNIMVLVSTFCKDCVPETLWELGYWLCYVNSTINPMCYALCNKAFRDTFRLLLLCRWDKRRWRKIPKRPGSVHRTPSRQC
T6 sequence (Q8TDS4 whole entry, species assumed): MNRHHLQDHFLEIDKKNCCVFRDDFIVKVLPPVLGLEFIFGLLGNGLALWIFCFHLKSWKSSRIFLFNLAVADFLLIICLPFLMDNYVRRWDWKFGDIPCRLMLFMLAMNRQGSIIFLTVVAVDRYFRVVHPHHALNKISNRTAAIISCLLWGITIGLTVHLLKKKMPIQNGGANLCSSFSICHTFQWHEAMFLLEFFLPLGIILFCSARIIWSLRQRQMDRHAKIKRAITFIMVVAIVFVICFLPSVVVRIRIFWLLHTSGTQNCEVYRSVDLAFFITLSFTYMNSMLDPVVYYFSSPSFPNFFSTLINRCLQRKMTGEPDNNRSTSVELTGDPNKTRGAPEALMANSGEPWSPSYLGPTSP
T9 sequence (P35372 whole entry, species assumed): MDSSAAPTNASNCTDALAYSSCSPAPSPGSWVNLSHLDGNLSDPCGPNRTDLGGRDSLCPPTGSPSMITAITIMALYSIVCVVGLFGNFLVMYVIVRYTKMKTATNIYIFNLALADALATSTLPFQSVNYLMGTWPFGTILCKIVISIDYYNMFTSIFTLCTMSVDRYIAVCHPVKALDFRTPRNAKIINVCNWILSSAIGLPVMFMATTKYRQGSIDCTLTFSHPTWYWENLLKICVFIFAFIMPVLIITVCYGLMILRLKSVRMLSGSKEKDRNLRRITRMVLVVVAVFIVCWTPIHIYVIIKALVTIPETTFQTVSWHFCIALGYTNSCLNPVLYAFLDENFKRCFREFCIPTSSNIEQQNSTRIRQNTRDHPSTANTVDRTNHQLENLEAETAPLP
T3 sequence (Q16602 23-461): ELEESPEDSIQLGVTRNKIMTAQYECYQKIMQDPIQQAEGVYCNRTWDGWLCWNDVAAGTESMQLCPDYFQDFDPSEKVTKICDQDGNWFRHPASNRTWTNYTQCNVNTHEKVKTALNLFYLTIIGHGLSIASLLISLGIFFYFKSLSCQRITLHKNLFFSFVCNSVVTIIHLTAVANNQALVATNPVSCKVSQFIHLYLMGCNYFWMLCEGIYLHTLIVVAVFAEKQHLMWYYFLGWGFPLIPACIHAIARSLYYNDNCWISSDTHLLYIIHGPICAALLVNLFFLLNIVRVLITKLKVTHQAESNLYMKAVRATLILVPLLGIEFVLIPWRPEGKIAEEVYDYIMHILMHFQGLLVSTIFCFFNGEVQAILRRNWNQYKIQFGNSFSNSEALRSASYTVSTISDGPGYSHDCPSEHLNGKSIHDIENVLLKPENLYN
T3 sequence (O60894 27-148 partner): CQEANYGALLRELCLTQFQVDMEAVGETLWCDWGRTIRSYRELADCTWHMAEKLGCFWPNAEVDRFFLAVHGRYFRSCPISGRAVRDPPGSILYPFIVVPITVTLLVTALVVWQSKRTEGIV
T22 sequence (P25021 whole entry): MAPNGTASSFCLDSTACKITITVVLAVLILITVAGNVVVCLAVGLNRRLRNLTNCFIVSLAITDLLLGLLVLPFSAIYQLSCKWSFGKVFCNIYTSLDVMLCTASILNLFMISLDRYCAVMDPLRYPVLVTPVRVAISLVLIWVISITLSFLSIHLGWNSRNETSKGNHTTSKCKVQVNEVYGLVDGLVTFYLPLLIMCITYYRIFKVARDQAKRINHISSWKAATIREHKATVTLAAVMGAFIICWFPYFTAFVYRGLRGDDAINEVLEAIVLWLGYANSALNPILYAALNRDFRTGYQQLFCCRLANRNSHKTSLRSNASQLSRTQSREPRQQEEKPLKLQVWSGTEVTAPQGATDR
T17 sequence (P34998 24-415): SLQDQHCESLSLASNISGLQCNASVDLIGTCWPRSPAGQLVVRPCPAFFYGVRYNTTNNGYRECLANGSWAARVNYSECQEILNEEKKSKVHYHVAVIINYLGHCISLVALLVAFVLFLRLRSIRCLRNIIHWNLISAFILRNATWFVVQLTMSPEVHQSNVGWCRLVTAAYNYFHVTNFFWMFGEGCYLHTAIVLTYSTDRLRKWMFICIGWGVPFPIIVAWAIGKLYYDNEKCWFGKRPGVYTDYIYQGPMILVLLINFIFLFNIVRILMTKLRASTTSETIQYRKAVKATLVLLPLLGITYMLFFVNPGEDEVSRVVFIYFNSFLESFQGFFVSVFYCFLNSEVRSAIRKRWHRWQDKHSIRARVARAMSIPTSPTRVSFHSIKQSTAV

With `CCN1C(=O)COc2nc(-c3ccc(C4(N)CC(O)C4)cc3)c(-c3ccccc3)cc21.O=C(O)C(O)C(O)C(=O)O` [VAD044, 6-(4-(1-amino-3-hydroxycyclobutyl)phenyl)-1-ethyl-7-phenyl-1H-pyrido[2,3-b][1,4]oxazin-2(3H)-one L-tartrate] the activation at 10 µM (H3; H3, 10 μM, read-out: AGONIST mean % increase in activity) was -0.6%, the inhibition at 10 µM (H3; [1]) was 3.5% and the activation at 10 µM (FPR1; FPR1, 10 μM, read-out: AGONIST mean % increase in activity) was -0.1%. The inhibition at 10 µM (FPR1; [1]) was 13.3%, the activation at 10 µM (CGRP1; CGRP1, 10 μM, read-out: AGONIST mean % increase in activity) was -0.1% and the inhibition at 10 µM (CGRP1; [1]) was -7.9%. For the same compound, the activation at 10 µM (PAC1; PAC1, 10 μM, read-out: AGONIST mean % increase in activity) was -0.6%, the inhibition at 10 µM (PAC1; [1]) was 1.1% and the activation at 10 µM (H1; H1, 10 μM, read-out: AGONIST mean % increase in activity) was -0.2%. The inhibition at 10 µM (H1; [1]) was 3.8%, the activation at 10 µM (GPR109A; GPR109A, 10 μM, read-out: AGONIST mean % increase in activity) was -0.7% and the inhibition at 10 µM (GPR109A; [1]) was 3.1%. For the same compound, the activation at 10 µM (ETB; ETB, 10 μM, read-out: AGONIST mean % increase in activity) was -1.1%, the inhibition at 10 µM (ETB; [1]) was 2.9% and the inhibition at 10 µM (Cav1.2) was < 25%. For the same compound, the activation at 10 µM (D5; [2]) was -0.8%, the inhibition at 10 µM (D5; [1]) was 35.4% and the inhibition at 10 µM (Kir2.1) was < 25%. For the same compound, the inhibition at 10 µM (OPRM1; OPRM1, read-out: ANTAGONIST mean % inhibition) was 2.4%, the activation at 10 µM (OPRM1; OPRM1, 10 μM, read-out: AGONIST mean % increase in activity) was -2% and the activation at 10 µM (BDKR2; BDKR2, 10 μM, read-out: AGONIST mean % increase in activity) was -0.4%. It also gave an inhibition at 10 µM (BDKR2; [1]) of 14.6%, an activation at 10 µM (M1; M1, 10 μM, read-out: AGONIST mean % increase in activity) of -0.7% and an inhibition at 10 µM (M1; [1]) of -3.4%. For the same compound, the inhibition at 10 µM (KCNQ1) was < 25%, the activation at 10 µM (BLT1; BLT1, 10 μM, read-out: AGONIST mean % increase in activity) was -0.2% and the inhibition at 10 µM (BLT1; [1]) was 5.6%. For the same compound, the activation at 10 µM (PAF; [2]) was -0.9%, the inhibition at 10 µM (PAF; [1]) was 21% and the activation at 10 µM (CXCR1; CXCR1, 10 μM, read-out: AGONIST mean % increase in activity) was -0.3%. For the same compound, the inhibition at 10 µM (CXCR1; [1]) was 3.7%, the activation at 10 µM (OPRD1; OPRD1, 10 μM, read-out: AGONIST mean % increase in activity) was -0.9% and the inhibition at 10 µM (OPRD1; [1]) was 2.8%. It also gave an activation at 10 µM (EP2; EP2, 10 μM, read-out: AGONIST mean % increase in activity) of -1%, an inhibition at 10 µM (EP2; [1]) of -0.5% and an activation at 10 µM (CRF1; CRF1, 10 μM, read-out: AGONIST mean % increase in activity) of 0%. The inhibition at 10 µM (CRF1; [1]) was 2.3%, the activation at 10 µM (FP; FP, 10 μM, read-out: AGONIST mean % increase in activity) was -0.7% and the inhibition at 10 µM (FP; [1]) was 13.6%. It also gave an activation at 10 µM (NMU1; NMU1, 10 μM, read-out: AGONIST mean % increase in activity) of -3.1%, an inhibition at 10 µM (NMU1; [1]) of 5.5% and an activation at 10 µM (CB2; CB2, 10 μM, read-out: AGONIST mean % increase in activity) of -0.9%. The inhibition at 10 µM (CB2; [1]) was 10.6%, the inhibition at 10 µM (Nav1.5) was < 25% and the activation at 10 µM (VPAC1; VPAC1, 10 μM, read-out: AGONIST mean % increase in activity) was -0.7%. The inhibition at 10 µM (VPAC1; [1]) was 8.5%, the activation at 10 µM (H2; H2, 10 μM, read-out: AGONIST mean % increase in activity) was -0.2% and the inhibition at 10 µM (H2; [1]) was -1.8%. The inhibition at 10 µM (PDK1; 10 μM) was 77%, the pIC50 (PDK1; 10-point titration curve) was < 5.00 and the activation at 10 µM (IP1; IP1, 10 μM, read-out: AGONIST mean % increase in activity) was 1.1%. For the same compound, the inhibition at 10 µM (IP1; [1]) was -2.6%.
